In brackets after ≈: the same amount, converted by molar mass. Structures can show the parent of a compound that is named as a salt.
Experiments:
[1] = test system: CD4+T and CD8+T lymphocytes; experiment: Number of CD4+T and CD8+T cells (immunofluorescence), drug-resistant Lewis lung cancer transplanted tumor; type: in vivo; conditions: transplanted tumor of drug-resistant Lewis lung cancer in mice, average of 6 high power fields
Procedure: (§1) The number of CD4+T and CD8+T lymphocytes was analyzed by immunofluorescence staining, and the average number of CD4+T and CD8+T cells infiltrated in 6 high power fields was counted.

[2] = test system: drug-resistant A549 lung cancer cell lines; experiment: MTT: IC50 of gemcitabine against drug-resistant A549 cells and drug-resistant index; type: cell-based, human
Procedure: A549 lung cancer cell lines were exposed to gemcitabine (2000 μg/ml) for 3 months, and centrifuged, to culture gemcitabine-resistant A549 cells. The cells were observed every day, and taken through 3 passages for about 3 days, to ensure cell viability.
Above-mentioned cell lines and drug-resistant cell lines in the logarithmic growth phase were selected, the cell concentration was adjusted to 8×10^3 cells/well, and then cells were seeded in a 96-well plate. For the experiment, there were three groups: blank group, control group and gemcitabine group. In the blank group, only medium was added, without inoculating cells; in the control group, medium was added, and cells were inoculated; in the gemcitabine group, medium was added, cells were inoculated, and then gemcitabine was added at different concentrations. The plates were placed in an incubator and incubated for 48 h, then 5 mg/ml MTT (20 μl) was added to each well, and the plate was further incubated for 4 h. […] Drug-resistant index=IC50 value of drug-resistant cells/IC50 value of sensitive cells

[3] = test system: PD-1/PD-L1; experiment: PD-1/PD-L1 expression rate (immunohistochemical SP method), drug-resistant Lewis lung cancer tumor tissue; type: in vivo; conditions: transplanted tumor tissues of drug-resistant Lewis lung cancer in mice, Example 3 regimen
Excerpt: (§2) The positive expression rate of PD-1/PD-L1 in tumor tissues was detected by immunohistochemical SP method.

[4] = test system: multi-drug resistant Lewis lung cancer; experiment: Tumor weight and inhibition rate, transplanted multi-drug resistant Lewis lung cancer; type: in vivo, mice; conditions: for Tumor weight / Tumor-inhibition rate (%): multi-drug resistant Lewis lung cancer mice, test drug 30 mg/kg i.p. 5 days, then gemcitabine 300 mg/kg or dacarbazine 60 mg/kg every other day
Procedure: Lewis lung cancer cell lines were induced by the increased gradient concentration of dacarbazine and gemcitabine, and established by clone screening, then cultured without drug before the experiment.
(§3) After the drug was removed from the drug-resistant cell lines, the cell concentration was adjusted to 1×10^7/ml with the culture medium. 1×10^7/ml of cells were subcutaneously injected into the right armpit of mice, 0.1 ml per mouse.
(§4) After the average diameter of tumor reached […], the mice were randomly divided into test drug group 1, test drug group 2, test drug group 3, test drug group 4, test drug group 5, test drug group 6, positive drug group, and negative group, respectively.
(§5) Test drug group: the test drug group was first intraperitoneally injected, once a day, 30 mg/kg/time, for 5 consecutive days; administration was stopped, and the positive drug was given by intraperitoneal injection on the next day; wherein the positive drug dacarbazine was administrated once every other day, 60 mg/kg/time; wherein the positive drug gemcitabine was given once every other day, 300 mg/kg/time.
(§6) Positive drug group: positive drug dacarbazine was given once every other day, 60 mg/kg/time; positive drug gemcitabine was given once every other day, 300 mg/kg/time.
(§7) Negative group: normal saline was intraperitoneally injected, once a day, for 15 consecutive days.
(§8) After completion of administration, the experiment was stopped, and the mice were killed by cervical dislocation and weighed. The tumor was stripped and weighed, to calculate the tumor inhibition rate.

[5] = test system: PD-1/PD-L1; experiment: PD-1/PD-L1 expression rate in transplanted tumor tissues, multidrug resistance model; type: in vivo; conditions: transplanted tumor tissues of B16 melanoma mice with multidrug resistance (as titled), Example 5 regimen
Excerpt: as §2

[6] = test system: CD4+T and CD8+T lymphocytes; experiment: Number of CD4+T and CD8+T lymphocytes in transplanted tumor of multidrug-resistant Lewis lung cancer mice; type: in vivo; conditions: average of 6 high power fields
Procedure: as §1

[7] = test system: gemcitabine-resistant Lewis lung cancer; experiment: Tumor weight and inhibition rate, transplanted gemcitabine-resistant Lewis lung cancer; type: in vivo; conditions: gemcitabine-resistant Lewis lung cancer mice; test drug 30 mg/kg i.p. once a day 5 days, then gemcitabine 300 mg/kg every other day; positive drug gemcitabine 300 mg/kg
Procedure: Lewis lung cancer cell lines were induced by the increased gradient concentration of gemcitabine, and established by clone screening and cultured without drug before the experiment.
as §3, §4, §5, §6, §7, §8

[8] = test system: PD-1/PD-L1; experiment: PD-1/PD-L1 expression rate (immunohistochemical SP method), drug-resistant B16 melanoma tumor tissue; type: in vivo; conditions: transplanted tumor tissues of drug-resistant B16 melanoma in mice, Example 3 regimen
Excerpt: as §2

[9] = test system: drug-resistant A375 melanoma cell lines; experiment: MTT: IC50 of dacarbazine against drug-resistant A375 cells and drug-resistant index; type: cell-based, human
Procedure: A375 melanoma cell lines were exposed to dacarbazine (400 μg/ml) for 3 months, and centrifuged, to culture dacarbazine-resistant A375 cells. The cells were observed every day, and taken through 3 passages for about 3 days, to ensure cell viability.
Above-mentioned cell lines and drug-resistant cell lines in the logarithmic growth phase were selected, the cell concentration was adjusted to 8×10^3 cells/well, and then cells were seeded in a 96-well plate. For the experiment, there were three groups: blank group, control group and dacarbazine group. In the blank group, only medium was added, without inoculating cells; in the control group, medium was added, and cells were inoculated; in the dacarbazine group, medium was added, cells were inoculated, and then dacarbazine was added at different concentrations. The plates were placed in an incubator and incubated for 48 h, then 5 mg/ml MTT (20 μl) was added to each well, and the plate was further incubated for 4 h.
Drug-resistant index=IC50 value of drug-resistant cells/IC50 value of sensitive cells

[10] = test system: CD4+T and CD8+T lymphocytes; experiment: Number of CD4+T and CD8+T cells (immunofluorescence), drug-resistant B16 melanoma transplanted tumor; type: in vivo; conditions: transplanted tumor of drug-resistant B16 melanoma in mice, average of 6 high power fields
Procedure: as §1

[11] = test system: dacarbazine-resistant B16 melanoma; experiment: Tumor weight and inhibition rate, transplanted dacarbazine-resistant B16 melanoma; type: in vivo; conditions: dacarbazine-resistant B16 melanoma mice; test drug 30 mg/kg i.p. once a day 5 days, then dacarbazine 60 mg/kg every other day; positive drug dacarbazine 60 mg/kg
Procedure: B16 melanoma cell lines were induced by the increased gradient concentration of dacarbazine, and established by clone screening and cultured without drug before the experiment.
as §3, §4, §5, §6, §7, §8

Row | SMILES | CD4 + T cells (number) [1] | CD8 + T cells (number) [1] | IC50 ([2]; Homo sapiens, gemcitabine against drug-resistant A549 lung cancer cell lines, MTT, 48 h, read-out: IC50 Concentration) [µg/mL] | Drug-resistant index ([2]; IC50 of drug-resistant cells/IC50 of sensitive cells, A549) | Expression rate of PD-1/PD-L1, Positive PD-L1 [3] [%] | Tumor weight [4] [g] | Tumor-inhibition rate (%) [4] [%] | inhibitory effect on the tumor (in words) ([4]; multidrug-resistant Lewis lung cancer mice, positive drug groups) | Expression rate of PD-1/PD-L1, Positive PD-L1 [5] [%] | CD4 + T cells (number) [6] | CD8 + T cells (number) [6] | Tumor inhibitory rate (%) [7] [%] | Tumor weight (g) [7] | Expression rate of PD-1/PD-L1, Positive PD-L1 [8] [%] | IC50 ([9]; Homo sapiens, A-375, dacarbazine against drug-resistant A375 melanoma cell lines, MTT, 48 h, read-out: IC50 Concentration) [µg/mL] | Drug-resistant index ([9]; IC50 of drug-resistant cells/IC50 of sensitive cells, A375) | CD4 + T cells (number) [10] | CD8 + T cells (number) [10] | Tumor inhibition rate (%) [11] [%] | Tumor weight [11] [g]
1 | Nc1ccn([C@@H]2O[C@H](CO)[C@@H](O)C2(F)F)c(=O)n1 [Gemcitabine, gemcitabine, reference compound] | 82.16 ± 1.42 | 112.53 ± 4.28 | 3620 (≈ 13.8 mM) | 4.63 | 78.93 | 2.27 ± 0.38 | 3.81 | don't have obvious inhibitory effect | 74.35 | 77.69 ± 8.96 | 121.08 ± 10.32 | 5.24 | 2.17 ± 0.89 ^ g | – | – | – | – | – | – | –
2 | CN(C)/N=N/c1[nH]cnc1C(N)=O [Dacarbazine, 5-(3,3-dimethyl-1-triazenyl)-4-carboxamideimidazolium citrate, reference compound] | – | – | – | – | – | 2.33 ± 0.52 | 1.27 | – | 72.51 | 74.52 ± 7.38 | 123.74 ± 12.85 | – | – | 72.51 | 560 | 6.22 | 63.67 ± 5.83 | 91.23 ± 3.84 | 4.55 | 2.52 ± 0.77

— patent publication US20210085630A1, “PHARMACEUTICAL COMPOSITION AND USE THEREOF IN PREPARING DRUG FOR TREATING TUMOR MULTI-DRUG RESISTANCE” (SICHUAN JIUZHANG BIOLOGICAL SCIENCE AND TECHNOLOGY CO., LTD., priority 2018, published 2021)
